The text below walks through data of PubChem BioAssay AID248 (DTP/NCI, 2004).

In this test the test system is L1210 leukemia ip in BDF1 mice, survival T/C. The test is described as follows: NCI In Vivo Anticancer Drug Screen. Data for tumor model L1210 Leukemia (intraperitoneal) in B6D2F1 (BDF1) mice. Conditions: endpoint: mean survival time, higher = longer survival. Summed up: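 Transplantable tumor model; survival measured in treated vs vehicle control mice. Value = treated/control.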

Where [1] appears, read: dose: 12.5 mg/kg/injection, schedule: Q01DX009 (ip), vehicle: Klucel (hydroxypropylcellulose) (HPC).
The mark [2] stands for this setting: dose: 50.0 mg/kg/injection, schedule: Q01DX009 (ip), vehicle: Klucel (hydroxypropylcellulose) (HPC).
Setting [3] is: dose: 100.0 mg/kg/injection, schedule: Q01DX001 (ip), vehicle: saline.
[4] abbreviates: dose: 200.0 mg/kg/injection, schedule: Q01DX001 (ip), vehicle: saline.
Setting [5] is: dose: 400.0 mg/kg/injection, schedule: Q01DX001 (ip), vehicle: saline.
[6] abbreviates: dose: 25.0 mg/kg/injection, schedule: Q01DX001 (ip), vehicle: saline with Tween-80.
Where [7] appears, read: dose: 100.0 mg/kg/injection, schedule: Q04DX002 (ip), vehicle: Klucel (hydroxypropylcellulose) (HPC).
Setting [8] is: dose: 200.0 mg/kg/injection, schedule: Q04DX002 (ip), vehicle: Klucel (hydroxypropylcellulose) (HPC).
[9] abbreviates: dose: 400.0 mg/kg/injection, schedule: Q04DX002 (ip), vehicle: Klucel (hydroxypropylcellulose) (HPC).

“And” between values parts separate entries of the source, which are not always exact repeats. Equal entries are not always repeated. Inconclusive results and toxic doses are left out.

With `NC(=S)N/N=C/c1c(Cl)[nH]c2ccccc12`, the T/C by setting is: (dose: 50.0 mg/kg/injection, schedule: Q04DX002 (ip), vehicle: saline) 98 % of control; (dose: 100.0 mg/kg/injection, schedule: Q04DX002 (ip), vehicle: saline) 102 % of control; (dose: 200.0 mg/kg/injection, schedule: Q04DX002 (ip), vehicle: saline) 98 % of control.

`COc1cc(/C=N\N=C(/C)c2ccc(C)cc2C)cc(OC)c1OC`: the T/C is 88 % of control (dose: 100.0 mg/kg/injection, schedule: Q04DX002 (ip), vehicle: saline with Tween-80) and 92 % of control (dose: 200.0 mg/kg/injection, schedule: Q04DX002 (ip), vehicle: saline with Tween-80).

As to `CCCCCCCCCCCC(=O)Nc1ccccc1`, the T/C under setting [1] is 92 % of control; the T/C (dose: 25.0 mg/kg/injection, schedule: Q01DX009 (ip), vehicle: Klucel (hydroxypropylcellulose) (HPC)) is 90 % of control; the T/C under setting [2] was 110 % of control.

`CC1=C(/C=C\C(C)=N\NC(=O)c2ccc[n+](C)c2)C(C)(C)CCC1`: the T/C is, setting by setting: (dose: 12.5 mg/kg/injection, schedule: Q01DX009 (ip), vehicle: saline) 98 % of control; (dose: 25.0 mg/kg/injection, schedule: Q01DX009 (ip), vehicle: saline) 88 % of control; (dose: 50.0 mg/kg/injection, schedule: Q01DX009 (ip), vehicle: saline) 104 % of control and 88 % of control.

Consider `CCO/C=C1\SC(=S)N(c2ccco2)C1=O`, for which the T/C was 98 % of control (dose: 100.0 mg/kg/injection, schedule: Q01DX009 (ip), vehicle: saline sonified); 103 % of control (dose: 200.0 mg/kg/injection, schedule: Q01DX009 (ip), vehicle: saline sonified); 92 % of control (dose: 400.0 mg/kg/injection, schedule: Q01DX009 (ip), vehicle: saline sonified).

Take `CC12CCC(=O)C3C1CCCC32`: the T/C is 100 % of control (dose: 100.0 mg/kg/injection, schedule: Q01DX001 (ip), vehicle: carboxymethylcellulose (CMC)); 111 % of control (dose: 200.0 mg/kg/injection, schedule: Q01DX001 (ip), vehicle: carboxymethylcellulose (CMC)); 103 % of control (dose: 400.0 mg/kg/injection, schedule: Q01DX001 (ip), vehicle: carboxymethylcellulose (CMC)).

`CCCCOCCCNCC(=O)Nc1ccc(S(=O)(=O)c2ccc(NC(=O)CNCCCOCCCC)cc2)cc1`: the T/C under setting [3] is 89 % of control, the T/C under setting [4] is 97 % of control and the T/C under setting [5] was 108 % of control.

Take `O=C(O)c1cccc(F)c1C(=O)c1ccc2ccccc2c1` (tested in a mixture with another compound): the T/C (dose: 100.0 mg/kg/injection, schedule: Q04DX003 (ip), vehicle: Klucel (hydroxypropylcellulose) (HPC)) is 105 % of control and the T/C (dose: 200.0 mg/kg/injection, schedule: Q04DX003 (ip), vehicle: Klucel (hydroxypropylcellulose) (HPC)) was 86 % of control.

In the case of `CCCCNc1ccc([N+](=O)[O-])cc1[N+](=O)[O-]`, the T/C is, setting by setting: (dose: 50.0 mg/kg/injection, schedule: Q01DX009 (ip), vehicle: other) 104 % of control; (dose: 100.0 mg/kg/injection, schedule: Q01DX009 (ip), vehicle: other) 93 % of control; (dose: 100.0 mg/kg/injection, schedule: Q04DX003 (ip), vehicle: other) 104 % of control; (dose: 200.0 mg/kg/injection, schedule: Q01DX009 (ip), vehicle: other) 104 % of control; (dose: 200.0 mg/kg/injection, schedule: Q04DX003 (ip), vehicle: other) 96 % of control.

On to `OCNC(=S)c1c(Cl)cccc1Cl`, for which the T/C by setting is: (dose: 100.0 mg/kg/injection, schedule: Q04DX003 (ip), vehicle: saline with Tween-80) 100 % of control; (dose: 200.0 mg/kg/injection, schedule: Q04DX003 (ip), vehicle: saline with Tween-80) 102 % of control; (dose: 400.0 mg/kg/injection, schedule: Q04DX003 (ip), vehicle: saline with Tween-80) 102 % of control.

Consider `CN(C)C(=S)NNC(=O)c1ccc(Cl)cc1`, for which the T/C is 98 % of control (dose: 6.25 mg/kg/injection, schedule: Q01DX001 (ip), vehicle: saline with Tween-80); 101 % of control (dose: 12.5 mg/kg/injection, schedule: Q01DX001 (ip), vehicle: saline with Tween-80); 104 % of control under setting [6].

In the case of `CN(C(=O)c1n[nH]c2ccccc12)c1ccccc1`, the T/C (dose: 50.0 mg/kg/injection, schedule: Q04DX002 (ip), vehicle: Klucel (hydroxypropylcellulose) (HPC)) was 101 % of control; the T/C under setting [7] is 108 % of control; the T/C under setting [8] was 101 % of control.

As to `O=c1c2ccccc2nc(CCN(CCCl)CCCl)n1-c1ccc(Cl)cc1`, the T/C reads like this: (dose: 150.0 mg/kg/injection, schedule: Q04DX002 (ip), vehicle: Klucel (hydroxypropylcellulose) (HPC)) 92 % of control; under setting [8], 98 % of control; under setting [9], 106 % of control.

In the case of `O=C(O)C1C(c2ccccc2)C2(c3ccccc3)C(=O)C1(c1ccccc1)C(c1ccccc1)=C2c1ccccc1` (stereo unspecified), the T/C is, setting by setting: under setting [6], 98 % of control; (dose: 50.0 mg/kg/injection, schedule: Q01DX001 (ip), vehicle: saline with Tween-80) 88 % of control; (dose: 100.0 mg/kg/injection, schedule: Q01DX001 (ip), vehicle: saline with Tween-80) 91 % of control; (dose: 200.0 mg/kg/injection, schedule: Q01DX001 (ip), vehicle: saline with Tween-80) 90 % of control; (dose: 400.0 mg/kg/injection, schedule: Q01DX001 (ip), vehicle: saline with Tween-80) 90 % of control.

Consider `CC1CCC(C(O)(C(=O)O)C2CCC(C)CC2)CC1` (stereo unspecified), for which the T/C (dose: 75.0 mg/kg/injection, schedule: Q01DX001 (ip), vehicle: other) was 104 % of control and the T/C (dose: 150.0 mg/kg/injection, schedule: Q01DX001 (ip), vehicle: other) was 104 % of control.

Take `CNc1nc2ncn(C)c2c(=O)[nH]1`: the T/C runs as follows: (dose: 100.0 mg/kg/injection, schedule: Q01DX009 (ip), vehicle: saline) 97 % of control; (dose: 200.0 mg/kg/injection, schedule: Q01DX009 (ip), vehicle: saline) 98 % of control; (dose: 400.0 mg/kg/injection, schedule: Q01DX009 (ip), vehicle: saline) 98 % of control.

Consider `O=C1OC2CCCCC1CC2` (stereo unspecified), for which the T/C by setting is: under setting [3], 108 % of control; under setting [4], 110 % of control; under setting [5], 87 % of control.

For `COc1ccc(NC(=O)COc2ccc(C)cc2C)cc1`, the T/C under setting [7] was 95 % of control, the T/C under setting [8] is 103 % of control and the T/C under setting [9] is 89 % of control.

For `Nc1c(Cl)c(Cl)nc(C(=O)O)c1Cl`, the T/C was 98 % of control (dose: 6.25 mg/kg/injection, schedule: Q01DX009 (ip), vehicle: Klucel (hydroxypropylcellulose) (HPC)); 98 % of control under setting [1]; 100 % of control under setting [2]; 95 % of control (dose: 100.0 mg/kg/injection, schedule: Q01DX009 (ip), vehicle: Klucel (hydroxypropylcellulose) (HPC)); 97 % of control (dose: 200.0 mg/kg/injection, schedule: Q01DX009 (ip), vehicle: Klucel (hydroxypropylcellulose) (HPC)).

In the case of `CN=C(N)c1ccc(NC(=O)Nc2ccc(NC(=O)Nc3ccc(C(N)=NC)cc3)cc2)cc1`, the T/C was 95 % of control (dose: 50.0 mg/kg/injection, schedule: Q01DX Z (oral), vehicle: saline); 157 % of control (dose: 60.0 mg/kg/injection, schedule: Q01DX Z (ip), vehicle: saline); 89 % of control (dose: 100.0 mg/kg/injection, schedule: Q01DX Z (oral), vehicle: saline); 205 % of control (dose: 120.0 mg/kg/injection, schedule: Q01DX Z (ip), vehicle: saline); 95 % of control (dose: 200.0 mg/kg/injection, schedule: Q01DX Z (oral), vehicle: saline); 108 % of control (dose: 240.0 mg/kg/injection, schedule: Q01DX Z (ip), vehicle: saline). Further, the T/C is, setting by setting: (dose: 400.0 mg/kg/injection, schedule: Q01DX Z (oral), vehicle: saline) 96 % of control; (dose: 480.0 mg/kg/injection, schedule: Q01DX Z (ip), vehicle: saline) 90 % of control.

Turning to `CC1(C)C2=CCCCC2CC/C1=N\O` (stereo unspecified), the T/C (dose: 100.0 mg/kg/injection, schedule: Q01DX001 (ip), vehicle: Klucel (hydroxypropylcellulose) (HPC)) is 105 % of control; the T/C (dose: 200.0 mg/kg/injection, schedule: Q01DX001 (ip), vehicle: Klucel (hydroxypropylcellulose) (HPC)) was 105 % of control; the T/C (dose: 400.0 mg/kg/injection, schedule: Q01DX001 (ip), vehicle: Klucel (hydroxypropylcellulose) (HPC)) was 100 % of control.
